O=Cc1ccc2c(c1)OCO2
solubility (mole fraction)
Conditions | in acetone | in chloroform | in ethanol | in isopropanol | in water
273.15 K | 0.0521 | 0.427 | 0.0056 | 0.0174 | 0.000118
278.15 K | 0.0655 | 0.477 | 0.0143 | 0.0227 | 0.000153
283.15 K | 0.0876 | 0.531 | 0.0396 | 0.0332 | 0.00022
288.15 K | 0.118 | 0.598 | 0.0697 | 0.0461 | 0.000277
293.15 K | 0.155 | 0.693 | 0.123 | 0.0753 | 0.000393

— BigSolDB 2.1
